Measurements published in patent publication US20250195452A1, “ER-BETA ESTROGENIC COMPOUNDS AND METHODS OF USE” (laterion, Inc., priority 2022, published 2025).
Entries after “also recorded” stand apart in the source; their conditions may differ.

How the values were obtained:
ERα = target: T1, ERα (Homo sapiens, UniProt P03372); experiment: Luciferase activity of ligands on the activation of the NKG2E ERE in U2OS-ERα cells; format: cell-based; conditions: for Activity in ERα U2OS cells: indicated micromolar concentrations, 24 hours; for Activation of ERα (NKG2E ERE luciferase activity): U2OS-ERα cells
T1 construct: expressed in transfected cells; host or cells: U2OS
T1 sequence (P03372 1-595): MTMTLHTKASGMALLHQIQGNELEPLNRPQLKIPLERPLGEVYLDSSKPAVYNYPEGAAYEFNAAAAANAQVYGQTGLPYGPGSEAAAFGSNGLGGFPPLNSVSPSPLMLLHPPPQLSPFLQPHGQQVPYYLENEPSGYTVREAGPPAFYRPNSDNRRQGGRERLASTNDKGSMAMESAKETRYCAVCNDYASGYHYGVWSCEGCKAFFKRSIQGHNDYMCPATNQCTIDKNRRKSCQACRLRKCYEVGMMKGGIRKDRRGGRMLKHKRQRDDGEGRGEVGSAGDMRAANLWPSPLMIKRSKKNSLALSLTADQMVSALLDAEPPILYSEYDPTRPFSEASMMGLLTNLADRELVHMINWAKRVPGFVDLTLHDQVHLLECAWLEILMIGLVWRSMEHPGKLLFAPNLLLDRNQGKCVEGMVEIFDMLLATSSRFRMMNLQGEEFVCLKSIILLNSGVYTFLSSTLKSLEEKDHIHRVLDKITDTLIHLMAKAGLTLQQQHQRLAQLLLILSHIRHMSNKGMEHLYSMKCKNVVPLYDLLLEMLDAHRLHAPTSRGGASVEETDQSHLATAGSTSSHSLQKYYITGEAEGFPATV
Source text: (§1) U2OS cells (wild type) were maintained in 5% charcoal-dextran stripped FBS.

ERβ = target: T2, ERβ (Homo sapiens, UniProt Q92731); experiment: Luciferase activity in U2OS cells transfected with NKG2E-TK-Luc and ERβ; format: cell-based; conditions: 200 nM
T2 construct: expressed in transfected cells; host or cells: U2OS
Method: as §1
Luciferase activity for each of the tested compounds was recorded.

GRE-TK-Luk, GR, and ERβ = experiment: Luciferase activity in GRE-TK-Luc-transfected U2OS-ERβ cells with doxycycline and hydrocortisone; format: cell-based; conditions: HC 100 nM; compounds at 0.5, 1, 2.5 and 5 μM; doxycycline
Method: Example 12: Luciferase Activity in GRE-TK-Luc-Transfected U2OS-ERβ cells with doxycycline. Doxycycline-dependent U2OS cells were transfected with GRE-TK-Luk, GR, and ERβ in the presence of hydrocortisone (HC, 100 nM) alone or in combination with Liquiritigenin, A10, A13, and A15. Luciferase activity for each of the compounds at 0.5, 1, 2.5 and 5 μM concentration was recorded.

[1] = Effects of ERβ compounds on uterine weight (histology, FIG. 16A-B); format: in vivo; conditions: in comparison to estradiol
Source text: Example 11: Effects of ERβ compounds on uterine and breast cancer cells.

[2] = tested on: MCF-7 breast cancer cells; experiment: Effects of ERβ compounds on breast cancer tumor formation (histology, FIG. 16A-B); format: in vivo; conditions: in comparison to estradiol

T2 sequence (Q92731 whole entry): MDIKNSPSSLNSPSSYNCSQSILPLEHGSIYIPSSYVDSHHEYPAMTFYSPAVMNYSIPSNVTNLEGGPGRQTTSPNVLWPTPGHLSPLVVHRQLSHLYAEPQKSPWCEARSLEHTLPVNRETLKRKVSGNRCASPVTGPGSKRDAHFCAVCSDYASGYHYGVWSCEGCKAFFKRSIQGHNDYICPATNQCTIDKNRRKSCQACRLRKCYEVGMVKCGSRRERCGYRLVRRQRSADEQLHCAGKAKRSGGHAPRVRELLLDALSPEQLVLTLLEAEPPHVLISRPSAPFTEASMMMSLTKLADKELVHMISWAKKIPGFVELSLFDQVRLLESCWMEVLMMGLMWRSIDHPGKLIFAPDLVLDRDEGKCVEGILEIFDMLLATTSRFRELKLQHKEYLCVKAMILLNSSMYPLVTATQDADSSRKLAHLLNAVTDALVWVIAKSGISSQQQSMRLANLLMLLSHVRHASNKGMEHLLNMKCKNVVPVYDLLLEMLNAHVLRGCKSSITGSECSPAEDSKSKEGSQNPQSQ

Row | Molecule | Activity in ERα U2OS cells (ERα) | Activation of ERβ (NKG2E-TK-Luc luciferase activity) (ERβ) | other results
1 | O=c1c(O)c(-c2ccc(O)cc2)oc2ccccc12 [3,4′-Dihydroxyflavone] | little or no activity |  | 
2 | O=c1cc(-c2ccc(O)cc2)oc2cccc(O)c12 [5,4′-Dihydroxyflavone] | little or no activity | activate ERβ | 
3 | O=c1cc(-c2ccc(O)cc2)oc2ccc(O)cc12 [6,4′-Dihydroxyflavone] | little or no activity | activate ERβ | Activation of ERα (NKG2E ERE luciferase activity) (ERα; 1 μM): activate ERα
4 | COc1c(O)cc2oc(-c3ccc(O)c(O)c3)cc(=O)c2c1O [6-methoxyluteolin] | little or no activity |  | 
5 | O=c1cc(-c2ccccc2O)oc2cc(O)ccc12 [7,2′-Dihydroxyflavone] | little or no activity |  | 
6 | O=c1cc(-c2cccc(O)c2)oc2cc(O)ccc12 [7,3′-Dihydroxyflavone] | little or no activity |  | 
7 | O=c1cc(-c2ccc(O)cc2)oc2cc(O)ccc12 [7,4′-Dihydroxyflavone] | little or no activity | activate ERβ | Activation of ERα (NKG2E ERE luciferase activity) (ERα; 5 μM): activate ERα
8 | O=C(/C=C/c1cccc(O)c1)c1ccc(O)c(O)c1O [A10, (E)-3-(3-hydroxyphenyl)-1-(2,3,4-trihydroxyphenyl) prop-2-en-1-one] |  |  | Effect on hydrocortisone (HC) induced luciferase activity (GRE-TK-Luk, GR, and ERβ): attenuated the effect of HC
9 | O=C(/C=C/c1ccc(O)cc1)c1ccccc1 [A15, (E)-3-(4-hydroxyphenyl)-1-phenylprop-2-en-1-one] |  |  | Effect on hydrocortisone (HC) induced luciferase activity (GRE-TK-Luk, GR, and ERβ): attenuated the effect of HC
10 | O=C(/C=C/c1ccc(O)cc1)c1ccc(O)cc1 [Analog 13, (E)-1,3-bis(4-hydroxyphenyl) prop-2-en-1-one] |  | activate ERβ | Activation of ERα (NKG2E ERE luciferase activity) (ERα; 5 μM): activate ERα; Effect on hydrocortisone (HC) induced luciferase activity (GRE-TK-Luk, GR, and ERβ): attenuated the effect of HC
11 | O=c1cc(-c2ccc(O)cc2)oc2cc(O)cc(O)c12 [Apigenin] |  | activate ERβ | 
12 | COc1ccc(-c2coc3cc(O)ccc3c2=O)cc1O [Calycosin] | little or no activity |  | Uterine weight [1]: do not increase uterine weight; Breast cancer tumor formation ([2]; listed as IATERB6): do not increase uterine weight or cause breast cancer tumor formation; also recorded: do not increase uterine breast cancer tumor formation
13 | Oc1ccc([C@H]2COc3cc(O)ccc3C2)cc1 [Equol] | little or no activity |  | Activation of ERα (NKG2E ERE luciferase activity) (ERα; 1 μM): activate ERα
14 | O=c1c(O)c(-c2ccccc2)oc2cc(O)cc(O)c12 [Galangin] | little or no activity |  | 
15 | O=C1C[C@@H](c2ccc(O)cc2)Oc2cc(O)ccc21 [Liquiritigenin] | little or no activity |  | Activation of ERα (NKG2E ERE luciferase activity) (ERα; 5 μM): activate ERα; Uterine weight [1]: do not increase uterine weight; Effect on hydrocortisone (HC) induced luciferase activity (GRE-TK-Luk, GR, and ERβ): attenuated the effect of HC; Breast cancer tumor formation ([2]; listed as IATERB7): do not increase uterine weight or cause breast cancer tumor formation; also recorded: do not increase uterine breast cancer tumor formation
16 | O=c1cc(-c2ccc(O)c(O)c2)oc2cc(O)cc(O)c12 [Luteolin] | little or no activity |  | 
17 | O=C1C[C@@H](c2ccc(O)cc2)Oc2cc(O)cc(O)c21 [Naringenin] | little or no activity | activate ERβ | 
18 | C=C[C@H](/C=C\c1ccc(O)cc1)c1ccc(O)cc1 [Nyasol] | little or no activity | activate ERβ | Activation of ERα (NKG2E ERE luciferase activity) (ERα; 1 μM): activate ERα; Uterine weight [1]: do not increase uterine weight; Breast cancer tumor formation ([2]; listed as IATERB5): do not increase uterine weight or cause breast cancer tumor formation; also recorded: do not increase uterine breast cancer tumor formation
19 | COc1c(O)cc(O)c2c(=O)cc(-c3ccccc3)oc12 [Wogonin] | little or no activity |  | 
20 | Broussonin A | little or no activity |  | Activation of ERα (NKG2E ERE luciferase activity) (ERα; 1 μM): activate ERα
